Like-named read-outs stand apart in the source and are kept apart here.
Columns and labels:
1b (BK) NS5bΔ21 = 1b (BK) NS5bΔ21 (Hepatitis C virus genotype 1b (isolate BK) (HCV), UniProt P26663); assay: HCV polymerase inhibition assay, genotype 1b; assay type: biochemical, HCV genotype 1b (BK)
How it was run: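 NS5bΔ21 (50 nM) in Tris-HCl pH 7.5 with Mg2+/Mn2+, DTT, BSA, 0.5% DMSO, poly(rC) template, GTP at Km and ^33P-GTP; 3-fold compound dilutions. GTP-started reactions stopped with EDTA after 1 h; incorporation read by DEAE filter scintillation counting. IC50 by non-linear regression; 3a enzyme run the same way.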

[1] = tested on: subgenomic genotype 2a replicon cell line; assay: HCV replicon assay, genotype 2a; assay type: cell-based, HCV genotype 2a
Description: (§1) A genotype 1b (Con 1) subgenomic replicon cell line based on Blight et al., Science 2000 290: 1972-1974, modified to express a Renilla luciferase reporter gene was used to assess antiviral activity of test compounds. Cell cultures were maintained in a sub-confluent state in DMEM with glutamine, 10% heat-inactivated foetal bovine serum (FBS) and G418 (Geneticin®).
(§2) For assay, cells were seeded at a density of 7000 cells/well into 96 well tissue culture trays in culture media lacking G418. Compounds were tested in a three fold dilution series, for example starting from 50 uM. After 72 hours incubation at 37° C. and 5% CO2, Renilla luciferase activity was quantified via the Promega Renilla Luciferase or Renilla-Glo™ Luciferase Assay Systems (Promega corporation. The same method was employed for replicon assays using subgenomic genotype 1a and 2a replicon cell lines with a seeding cell density of 5000 cells/well for the 2a cell lines.
(§3) The compound concentration that reduced luciferase activity by 50% (EC50) was calculated using non-linear regression.

[2] = tested on: subgenomic genotype 1a replicon cell line; assay: HCV replicon assay, genotype 1a; assay type: cell-based, HCV genotype 1a
Description: as §1, §2, §3

[3] = target: genotype 3a (VRL-69) NS5bΔ21 polymerase (Hepatitis C virus genotype 3a, UniProt Q81258); assay: HCV polymerase inhibition assay, genotype 3a; assay type: biochemical, HCV genotype 3a (VRL-69)
genotype 3a (VRL-69) NS5bΔ21 polymerase, sequence (Q81258 whole entry, looked up, stated change not applied): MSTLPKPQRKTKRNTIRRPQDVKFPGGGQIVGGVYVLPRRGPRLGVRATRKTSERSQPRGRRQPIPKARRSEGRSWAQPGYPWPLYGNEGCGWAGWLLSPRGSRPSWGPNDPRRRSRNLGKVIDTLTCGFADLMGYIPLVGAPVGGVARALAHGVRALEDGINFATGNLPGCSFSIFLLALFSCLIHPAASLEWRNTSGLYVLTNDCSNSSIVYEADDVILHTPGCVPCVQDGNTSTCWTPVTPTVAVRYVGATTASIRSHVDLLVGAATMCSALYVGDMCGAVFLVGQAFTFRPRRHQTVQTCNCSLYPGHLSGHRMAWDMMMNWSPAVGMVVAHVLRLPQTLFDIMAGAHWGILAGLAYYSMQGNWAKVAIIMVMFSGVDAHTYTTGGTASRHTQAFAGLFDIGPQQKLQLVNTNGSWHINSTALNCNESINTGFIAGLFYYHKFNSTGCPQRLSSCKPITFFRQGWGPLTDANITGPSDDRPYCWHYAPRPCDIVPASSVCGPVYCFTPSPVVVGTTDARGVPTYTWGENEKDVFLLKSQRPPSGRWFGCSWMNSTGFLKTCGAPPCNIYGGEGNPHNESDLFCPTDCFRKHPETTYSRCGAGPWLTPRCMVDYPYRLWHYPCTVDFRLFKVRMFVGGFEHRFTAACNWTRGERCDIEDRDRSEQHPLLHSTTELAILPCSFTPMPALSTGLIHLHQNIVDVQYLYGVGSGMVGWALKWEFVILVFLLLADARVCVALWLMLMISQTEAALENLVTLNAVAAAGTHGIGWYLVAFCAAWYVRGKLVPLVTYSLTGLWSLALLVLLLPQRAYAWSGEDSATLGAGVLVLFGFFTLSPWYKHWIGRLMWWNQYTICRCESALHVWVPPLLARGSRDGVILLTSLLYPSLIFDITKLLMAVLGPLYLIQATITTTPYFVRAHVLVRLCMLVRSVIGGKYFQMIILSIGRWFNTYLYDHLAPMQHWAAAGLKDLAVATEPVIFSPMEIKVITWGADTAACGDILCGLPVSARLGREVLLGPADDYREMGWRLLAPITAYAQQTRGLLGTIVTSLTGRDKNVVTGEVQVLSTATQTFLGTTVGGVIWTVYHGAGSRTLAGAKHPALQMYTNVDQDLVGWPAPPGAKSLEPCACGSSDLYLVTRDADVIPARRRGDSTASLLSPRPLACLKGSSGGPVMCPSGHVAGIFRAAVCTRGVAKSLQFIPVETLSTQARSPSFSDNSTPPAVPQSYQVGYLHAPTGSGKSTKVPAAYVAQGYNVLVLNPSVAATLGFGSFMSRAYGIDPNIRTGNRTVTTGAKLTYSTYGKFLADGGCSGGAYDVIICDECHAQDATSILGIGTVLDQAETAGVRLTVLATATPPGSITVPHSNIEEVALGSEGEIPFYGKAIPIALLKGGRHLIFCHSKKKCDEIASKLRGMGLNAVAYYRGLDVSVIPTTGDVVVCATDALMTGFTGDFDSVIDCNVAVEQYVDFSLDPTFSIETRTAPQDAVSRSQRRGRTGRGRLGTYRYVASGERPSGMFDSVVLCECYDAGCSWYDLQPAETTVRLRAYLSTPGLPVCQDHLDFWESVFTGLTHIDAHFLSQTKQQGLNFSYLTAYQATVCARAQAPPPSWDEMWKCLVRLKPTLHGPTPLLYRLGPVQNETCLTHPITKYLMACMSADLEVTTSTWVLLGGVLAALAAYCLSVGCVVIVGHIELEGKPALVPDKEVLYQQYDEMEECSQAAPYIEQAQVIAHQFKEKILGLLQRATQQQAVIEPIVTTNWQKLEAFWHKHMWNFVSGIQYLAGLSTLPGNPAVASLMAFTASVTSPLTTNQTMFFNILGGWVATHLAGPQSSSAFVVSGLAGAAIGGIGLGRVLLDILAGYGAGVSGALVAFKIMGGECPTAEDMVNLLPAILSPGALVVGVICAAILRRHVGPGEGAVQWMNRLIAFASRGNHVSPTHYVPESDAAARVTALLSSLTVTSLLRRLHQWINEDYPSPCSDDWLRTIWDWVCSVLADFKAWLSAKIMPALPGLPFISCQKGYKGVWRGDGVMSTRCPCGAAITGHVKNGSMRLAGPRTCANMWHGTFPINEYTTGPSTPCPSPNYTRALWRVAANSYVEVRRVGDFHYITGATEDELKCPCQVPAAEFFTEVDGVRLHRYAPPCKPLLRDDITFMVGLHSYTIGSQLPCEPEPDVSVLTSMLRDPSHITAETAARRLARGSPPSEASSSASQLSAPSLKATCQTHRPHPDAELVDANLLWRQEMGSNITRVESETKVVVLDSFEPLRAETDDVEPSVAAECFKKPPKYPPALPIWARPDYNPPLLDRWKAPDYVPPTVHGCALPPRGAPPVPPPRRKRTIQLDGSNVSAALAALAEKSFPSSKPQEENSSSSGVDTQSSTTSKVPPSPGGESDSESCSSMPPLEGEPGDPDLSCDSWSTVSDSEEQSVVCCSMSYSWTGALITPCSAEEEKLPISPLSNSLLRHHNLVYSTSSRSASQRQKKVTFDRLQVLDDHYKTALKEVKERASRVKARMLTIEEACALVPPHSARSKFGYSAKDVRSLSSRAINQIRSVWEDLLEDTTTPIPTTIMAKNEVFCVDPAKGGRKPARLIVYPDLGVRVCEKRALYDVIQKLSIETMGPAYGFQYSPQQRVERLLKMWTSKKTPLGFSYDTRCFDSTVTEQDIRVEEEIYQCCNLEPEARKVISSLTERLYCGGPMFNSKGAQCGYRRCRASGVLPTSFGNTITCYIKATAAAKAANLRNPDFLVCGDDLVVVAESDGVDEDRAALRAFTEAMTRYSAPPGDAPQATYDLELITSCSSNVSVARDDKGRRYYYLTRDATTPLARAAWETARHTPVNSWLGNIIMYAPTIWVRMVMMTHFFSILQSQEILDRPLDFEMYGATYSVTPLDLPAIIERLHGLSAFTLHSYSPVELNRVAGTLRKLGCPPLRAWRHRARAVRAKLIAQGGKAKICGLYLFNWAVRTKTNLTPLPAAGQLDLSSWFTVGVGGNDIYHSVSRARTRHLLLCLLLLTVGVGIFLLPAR
Description: HCV polymerase reactions were carried out using a modified method of Howe et al., Antimicrobial Agents and Chemotherapy 2004 48(12): 4813-4821. Reactions contained a final concentration of, 0.5% DMSO, 50 nM, 1b (BK) NS5bΔ21, 20 mM Tris-HCl pH 7.5, 5 mM MgCl2, 5 mM MnCl2, 3 mM DTT, 0.05% BSA, 0.2 U/μL RNasin, 10 μg/mL Poly(rC) template, GTP (at Km) and 0.05 μCi/μL ^33P-GTP in a total reaction volume of 50 μL. Compounds were tested in a three fold dilution series, for example starting from 50 μM. Reactions were initiated with the addition of GTP and terminated after 1 hour with 50 μL ice cold 0.2 M EDTA. Terminated reactions were transferred to DEAE 96-well filter plates, unincorporated nucleotides washed from the filters and 50 μL scintillation fluid added prior to reading on a scintillation counter. Similarly, a genotype 3a (VRL-69) NS5bΔ21 polymerase enzyme assay was conducted using essentially the same method.
The compound concentration that reduced ^33P-GTP incorporation by 50% (IC50) was calculated using non-linear regression.

[4] = tested on: genotype 1b (Con 1) subgenomic replicon cell line; assay: HCV replicon assay, genotype 1b (Renilla luciferase); assay type: cell-based, HCV genotype 1b (Con 1); conditions: genotype 1b replicon
How it was run: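 Subgenomic replicon cells expressing Renilla luciferase (1b Con1; 1a and 2a lines by the same method) seeded at 7000 cells/well (5000 for 2a) without G418, exposed to 3-fold compound dilutions for 72 h at 37 °C. Luciferase activity measured; EC50 by non-linear regression.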

[5] = genotype 1b, read-out: 1b NS5b polymerase IC50
[6] = genotype 3a, read-out: 3a NS5b polymerase IC50
[7] = 1b (BK) NS5bΔ21, 33P-GTP incorporation, read-out: 1b polymerase IC50 (range class)
[8] = Hepatitis C virus, 72 hours, luciferase, read-out: genotype 1b EC50 (range class)
[9] = Hepatitis C virus, read-out: Replicon 1b EC50

1b (BK) NS5bΔ21, sequence (P26663 2420-2989): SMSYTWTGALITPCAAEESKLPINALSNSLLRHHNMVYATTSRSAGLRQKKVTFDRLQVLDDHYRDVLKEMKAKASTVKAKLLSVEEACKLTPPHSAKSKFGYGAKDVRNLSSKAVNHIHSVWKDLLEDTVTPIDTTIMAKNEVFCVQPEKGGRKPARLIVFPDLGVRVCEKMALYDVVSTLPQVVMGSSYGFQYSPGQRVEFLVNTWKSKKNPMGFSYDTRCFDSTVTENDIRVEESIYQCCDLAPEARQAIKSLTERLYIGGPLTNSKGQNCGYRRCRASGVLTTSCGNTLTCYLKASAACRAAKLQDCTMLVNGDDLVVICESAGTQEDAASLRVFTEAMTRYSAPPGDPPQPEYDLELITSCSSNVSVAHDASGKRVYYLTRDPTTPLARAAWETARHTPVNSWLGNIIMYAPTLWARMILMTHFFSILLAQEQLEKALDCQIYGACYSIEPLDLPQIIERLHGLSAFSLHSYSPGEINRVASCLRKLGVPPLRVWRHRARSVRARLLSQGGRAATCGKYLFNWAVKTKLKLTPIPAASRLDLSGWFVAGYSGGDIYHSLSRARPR

SMILES	IC50 (1b (BK) NS5bΔ21; [5]) [nM]	IC50 (1b (BK) NS5bΔ21; [7]) [nM]	EC50 ([1]; Hepatitis C virus) [nM]	EC50 ([2]; Hepatitis C virus) [nM]	EC50 [4, 8] [nM]	EC50 [4, 9] [nM]	further results
CNC(=O)c1c2cc(C3CC3)c(N(CCCO)S(C)(=O)=O)cc2nn1-c1ccc(Cl)cc1 [Compound 54, 2-(4-Chlorophenyl-1)-5-cyclopropyl-6-[3-hydroxypropyl(methylsulfonyl)amino]-N-methyl-indazole-3-carboxamide]	360						EC50 [1]: 1030 nM; EC50 [2]: 300 nM; IC50 [3, 6]: 20 nM; EC50 ([4]; read-out: Replicon 1b EC50): 100 nM
CNC(=O)c1c2cc(C3CC3)c(N(CCCNC(=O)c3ccoc3)S(C)(=O)=O)cc2nn1-c1ccc(Nc2ccc(F)cc2)cc1 [Compound 120]	110	< 990	14400	3690	< 990	90	IC50 [3]: 80 nM
CNC(=O)c1c2cc(C3CC3)c(N(CCCNC(C)=O)S(C)(=O)=O)cc2nn1-c1ccc(Nc2ccc(F)cc2)cc1 [Compound 119]	130	< 990	2700	1200	< 990	240	IC50 [3, 6]: 30 nM
CNC(=O)c1c2cc(C3CC3)c(N(CCCNC(C)=O)S(C)(=O)=O)cc2nn1-c1ccc(Br)cc1 [Compound 59, 6-{[3-(Acetylamino)propyl](methylsulfonyl)amino}-2-(4-bromophenyl)-5-cyclopropyl-N-methyl-2H-indazole-3-carboxamide]	260	< 990	1430	300	< 990	670	IC50 [3, 6]: 50 nM
CNC(=O)c1c2cc(C3CC3)c(N(CCCNC(=O)c3nonc3C)S(C)(=O)=O)cc2nn1-c1ccc(Br)cc1 [Compound 179]	260	< 990	520	180	< 990	70	IC50 [3, 6]: 30 nM
CNC(=O)c1c2cc(C3CC3)c(N(CCCNS(C)(=O)=O)S(C)(=O)=O)cc2nn1-c1ccc(Br)cc1 [Compound 134]	90	< 990	5020	540	< 990	110	IC50 [3, 6]: 30 nM
CCN(c1cc2nn(-c3ccc(Nc4ccc(F)cc4)cc3)c(C(=O)NC)c2cc1C1CC1)S(C)(=O)=O [Compound 22]	110	< 990	340	380	< 990	70	IC50 [3, 6]: 20 nM
CNC(=O)c1c2cc(C3CC3)c(N(C)S(C)(=O)=O)cc2nn1-c1ccc(Br)cc1 [Compound 234]	140	< 990	420	240	< 990	80	IC50 [3, 6]: 20 nM
CCCC(=O)NCCCN(c1cc2nn(-c3ccc(Br)cc3)c(C(=O)NC)c2cc1C1CC1)S(C)(=O)=O [Compound 171]	310	< 990	4260	280	< 990	210	IC50 [3, 6]: 40 nM
CCOC(=O)CCN(c1cc2nn(-c3ccc(Br)cc3)c(C(=O)NC)c2cc1C1CC1)S(C)(=O)=O [Compound 131]	370	< 990	3790	450	< 990	140	IC50 [3]: 470 nM
CNC(=O)c1c2cc(C3CC3)c(N(CCCNC(=O)c3ncoc3C)S(C)(=O)=O)cc2nn1-c1ccc(Br)cc1 [Compound 174]		< 990	1730	60	< 990	110	
CNC(=O)c1c2cc(C3CC3)c(N(CCC(=O)O)S(C)(=O)=O)cc2nn1-c1ccc(Br)cc1 [Compound 90, N-[2-(4-bromophenyl)-5-cyclopropyl-3-(methylcarbamoyl)-2H-indazol-6-yl]-N-(methylsulfonyl)-beta-alanine]		< 990			10000 to 50000		
CCN(C(C)=O)c1cc2nn(-c3ccc(Br)cc3)c(C(=O)NC)c2cc1C1CC1 [Compound 48, 6-[Acetyl(ethyl)amino]-2-(4-bromophenyl)-5-cyclopropyl-N-methyl-2H-indazole-3-carboxamide]		10000 to 50000			1000 to 9990		
CNC(=O)c1c2cc(C3CC3)c(N(CCCNC(=O)c3ccccc3C(=O)O)S(C)(=O)=O)cc2nn1-c1ccc(Br)cc1 [Compound 147]		< 990			1000 to 9990		
CNC(=O)c1c2cc(C3CC3)c(N(CC(CO)CO)S(C)(=O)=O)cc2nn1-c1ccc(Br)cc1 [Compound 203]		10000 to 50000			10000 to 50000		
CCN(c1cc2nn(-c3ccc(NCC(C)C)nc3)c(C(=O)NC)c2cc1C1CC1)S(C)(=O)=O [Compound 110, 5-cyclopropyl-6-[ethyl(methylsulfonyl)amino]-2-[6-(isobutylamino)-3-pyridyl]-N-methyl-2H-indazole-3-carboxamide]		< 990			< 990		
CNC(=O)c1c2cc(C3CC3)c(-c3nccn3C)cc2nn1-c1ccc(F)cc1 [Compound 157]		1000 to 9990			10000 to 50000		
CCOC(=O)CCCN(CC)c1cc2nn(-c3ccc(Br)cc3)c(C(=O)NC)c2cc1C1CC1 [Compound 225]		1000 to 9990			< 990		
CNC(=O)c1c2cc(C3CC3)c(N(CCCNCc3ccc(OC)cc3)S(C)(=O)=O)cc2nn1-c1ccc(Br)cc1 [Compound 210]		1000 to 9990			1000 to 9990		
CNC(=O)c1c2cc(C3CC3)c(N3CCCS3(=O)=O)cc2nn1-c1ccc(Br)cc1 [Compound 128]		1000 to 9990			1000 to 9990		
CNC(=O)c1c2cc(C3CC3)c(N(CCCNC(=O)C3COCCN3C)S(C)(=O)=O)cc2nn1-c1ccc(Br)cc1 (stereo not shown) [Compound 64, 2-(4-Bromophenyl)-5-cyclopropyl-N-methyl-6-{[3-({[4-methylmorpholin-3-yl]carbonyl}amino)propyl](methylsulfonyl)amino}-2H-indazole-3-carboxamide]		< 990			< 990		
CNC(=O)c1c2cc(C3CC3)c(N(CCCNC(=O)[C@H]3CCCC[C@@H]3C(=O)O)S(C)(=O)=O)cc2nn1-c1ccc(Br)cc1 [Compound 187]		< 990			1000 to 9990		
CNC(=O)c1c2cc(C3CC3)c(N(CCCC(=O)NS(=O)(=O)C(F)(F)F)S(C)(=O)=O)cc2nn1-c1ccc(Br)cc1 [Compound 196]		< 990			1000 to 9990		
CNC(=O)c1c2cc(C3CC3)c(N(CCCC(C(=O)O)C(=O)O)S(C)(=O)=O)cc2nn1-c1ccc(Br)cc1 [Compound 224]		< 990			1000 to 9990		
CNC(=O)c1c2cc(C3CC3)c(N(CCC(=O)N(C)C)S(C)(=O)=O)cc2nn1-c1ccc(Br)cc1 [Compound 155]		< 990			1000 to 9990		
CNC(=O)c1c2cc(C3CC3)c(N(CCO)S(C)(=O)=O)cc2nn1-c1ccc(Br)cc1 [Compound 24]		< 990			< 990		
CCN(c1cc2nn(-c3ccc(NC)nc3)c(C(=O)NC)c2cc1C1CC1)S(C)(=O)=O [Compound 255]		< 990			< 990		
C#Cc1cc2c(C(=O)NC)n(-c3ccc(F)cc3)nc2cc1N(CC)S(C)(=O)=O [Compound 77, 6-[Ethyl(methylsulfonyl)amino]-5-ethynyl-2-(4-fluorophenyl)-N-methyl-2H-indazole-3-carboxamide]		10000 to 50000			1000 to 9990		
CNC(=O)c1c2cc(C3CC3)c(N(CCCC(=O)O)S(C)(=O)=O)cc2nn1-c1ccc(Cl)cc1 [Compound 208]		< 990			10000 to 50000		

From patent US8546389B2 (priority 2010, dated 2013)
